Measurements published in patent publication US9133104B2 (Chroma Therapeutics Ltd., priority 2005, dated 2015).

Each compound was assayed on Hela cancer cell line (assay: Cell inhibition assay (SRB cell viability), Hela). Conditions: Homo sapiens, HeLa, 72 h, Hela cells, IC50 range.
Assay type: cell-based
Method: The corresponding cancer cell lines (Hela, U937 and HUT) growing in log phase were harvested and seeded at 1000 cells/well (200 ul final volume) into 96-well tissue culture plates. Following 24 h of cell growth cells were treated with compounds (final concentration of 20 uM). Plates were then re-incubated for a further 72 h before a sulphorhodamine B (SRB) cell viability assay was conducted according to Skehan 1990 J Natl Canc Inst 82, 1107-1112.
Data were expressed as a percentage inhibition of the control, measured in the absence of inhibitor, as follows:— % inhibition=100−((S^i/S^o)×100) where S^i is the signal in the presence of inhibitor and S^o is the signal in the presence of DMSO. IC50 values were determined by non-linear regression analysis, after fitting the results of eight data points to the equation for sigmoidal dose response with variable slope (% activity against log concentration of compound), using Graphpad Prism software. […] NT=Not tested
In the case of `O=C(CCCCCCC(=O)N1CCc2c([nH]c3ccccc23)C1C(=O)N[C@@H](Cc1ccccc1)C(=O)O)NO` (stereo partly drawn) [Compound 65, (S)-2-{[2-(7-Hydroxycarbamoyl-heptanoyl)-2,3,4,9-tetrahydro-1H-beta-carboline-1-carbonyl]-amino}-3-phenyl-propionic acid], the IC50 is reported as > 3300 nM.
`O=C(CCCCCCC(=O)Nc1cccc(CN[C@@H](Cc2ccccc2)C(=O)O)c1)NO` [Compound 27, (S)-2-[3-(7-Hydroxycarbamoyl-heptanoylamino)-benzylamino]-3-phenyl-propionic acid] was tested, and the IC50 was > 3300 nM.
`O=C(CCCCCCC(=O)N1Cc2ccccc2C[C@H]1C(=O)N[C@H](C(=O)O)c1ccccc1)NO` [Compound 45, (S)-{[(S)-2-(7-Hydroxycarbamoyl-heptanoyl)-1,2,3,4-tetrahydro-isoquinoline-3-carbonyl]-amino}-phenyl-acetic acid] was tested, and the IC50 was > 3300 nM.

These compounds were tested against T1, histone deacetylase activity (HeLa nuclear extract) (assay: HDAC fluorescent activity assay (Biomol Fluor de Lys), HeLa nuclear extract). Conditions: Fluor de Lys substrate, IC50 range.
T1 construct: Histone deacetylase activity from crude nuclear extract derived from HeLa cells was used for screening
Assay type: biochemical
Method: The ability of compounds to inhibit histone deacetylase activities was measured using the commercially available HDAC fluorescent activity assay from Biomol. In brief, the Fluor de Lys™ substrate, a lysine with an epsilon-amino acetylation, is incubated with the source of histone deacetylase activity (HeLa nuclear extract) in the presence or absence of inhibitor. Deacetylation of the substrate sensitises the substrate to Fluor de Lys™ developer, which generates a fluorophore. Thus, incubation of the substrate with a source of HDAC activity results in an increase in signal that is diminished in the presence of an HDAC inhibitor.
Data are expressed as a percentage of the control, measured in the absence of inhibitor, with background signal being subtracted from all samples, as follows:— % activity=((S^i−B)/(S^o−B))×100 where S^i is the signal in the presence of substrate, enzyme and inhibitor, S^o is the signal in the presence of substrate, enzyme and the vehicle in which the inhibitor is dissolved, and B is the background signal measured in the absence of enzyme.
IC50 values were determined by non-linear regression analysis, after fitting the results of eight data points to the equation for sigmoidal dose response with variable slope (% activity against log concentration of compound), using Graphpad Prism software.
Histone deacetylase activity from crude nuclear extract derived from HeLa cells was used for screening. The preparation, purchased from 4C (Seneffe, Belgium), was prepared from HeLa cells harvested whilst in exponential growth phase. The nuclear extract is prepared according to Dignam JD1983 Nucl. Acid. Res. 11, 1475-1489, snap frozen in liquid nitrogen and stored at −80° C. The final buffer composition was 20 mM Hepes, 100 mM KCl, 0.2 mM EDTA, 0.5 mM DTT, 0.2 mM PMSF and 20% (v/v) glycerol.
For `O=C(CCCCCCC(=O)Nc1cccc(COC(=O)N[C@@H](Cc2ccccc2)C(=O)O)c1)NO` [Compound 95, (S)-2-[3-(7-Hydroxycarbamoyl-heptanoylamino)-benzyloxycarbonylamino]3-phenyl-propionic acid], the IC50 was 101 to 1000 nM.
For `CC(C)C[C@H](NC(=O)c1ccc(NC(=O)CCCCCCC(=O)NO)cc1)C(=O)O` [Compound 99, (S)-2-[4-(7-Hydroxycarbamoyl-heptanoylamino)-benzoylamino]-4-methyl-pentanoic acid], the IC50 was > 1000 nM.
With `CC(C)C[C@H](NCc1cccc(NC(=O)CCCCCCC(=O)NO)c1)C(=O)O` [Compound 38, (S)-2-[3-(7-Hydroxycarbamoyl-heptanoylamino)-benzylamino]-4-methyl-pentanoic acid] the IC50 was 101 to 1000 nM.
`CC(C)C[C@H](NCc1ccc(CNCc2ccc3cc(C(=O)NO)sc3c2)cc1)C(=O)O` [Compound 123, (S)-2-(4-{[(2-Hydroxycarbamoyl-benzo[b]thiophen-6-ylmethyl)-amino]-methyl}-benzylamino)-4-methyl-pentanoic acid] was tested, and the IC50 was < 100 nM.
In the case of `O=C(NO)c1cc2ccc(CNCc3ccc(CN4CCC[C@H]4C(=O)O)cc3)cc2s1` [Compound 112, (S)-1-(4-{[(2-Hydroxycarbamoyl-benzo[b]thiophen-6-ylmethyl)-amino]-methyl}-benzyl)-pyrrolidine-2-carboxylic acid], the IC50 is reported as 101 to 1000 nM.
With `O=C(Cc1ccc(OCCCC(=O)N[C@@H](Cc2ccccc2)C(=O)O)cc1)Nc1ccc2sc(C(=O)NO)cc2c1` [Compound 103, (S)-2-(4-{4-[(2-Hydroxycarbamoyl-benzo[b]thiophen-5-ylcarbamoyl)-methyl]-phenoxy}-butyrylamino)-3-phenyl-propionic acid] the IC50 was < 100 nM.
With `O=C(CCCCCCC(=O)N1CCc2c([nH]c3ccccc23)C1C(=O)N[C@@H](Cc1ccccc1)C(=O)O)NO` (stereo partly drawn) [Compound 65, (S)-2-{[2-(7-Hydroxycarbamoyl-heptanoyl)-2,3,4,9-tetrahydro-1H-beta-carboline-1-carbonyl]-amino}-3-phenyl-propionic acid] the IC50 was < 100 nM.
With `O=C(CCCCCCC(=O)Nc1cccc(CN[C@@H](Cc2ccccc2)C(=O)O)c1)NO` [Compound 27, (S)-2-[3-(7-Hydroxycarbamoyl-heptanoylamino)-benzylamino]-3-phenyl-propionic acid] the IC50 was 101 to 1000 nM.
`O=C(CCCCCCC(=O)Nc1ccc(CN[C@@H](C(=O)O)c2ccccc2)cc1)NO` [Compound 84, (R)-[4-(7-Hydroxycarbamoyl-heptanoylamino)-benzylamino]-phenyl-acetic acid] was tested, and the IC50 was 101 to 1000 nM.
With `O=C(CCCCCCC(=O)Nc1cccc(OCCN[C@@H](Cc2ccccc2)C(=O)O)c1)NO` [Compound 74, (S)-2-{2-[3-(7-Hydroxycarbamoyl-heptanoylamino)-phenoxy]-ethylamino}-3-phenyl-propionic acid] the IC50 was 101 to 1000 nM.
`O=C(CCCCCCC(=O)N1Cc2ccccc2C[C@H]1C(=O)N[C@H](C(=O)O)c1ccccc1)NO` [Compound 45, (S)-{[(S)-2-(7-Hydroxycarbamoyl-heptanoyl)-1,2,3,4-tetrahydro-isoquinoline-3-carbonyl]-amino}-phenyl-acetic acid] was tested, and the IC50 was > 1000 nM.
Work on `CC(C)C[C@H](NC(=O)[C@@H]1Cc2ccc(NC(=O)CCCCCCC(=O)NO)cc2CN1)C(=O)O` [Compound 97, (S)-2-{[(S)-7-(7-Hydroxycarbamoyl-heptanoylamino)-1,2,3,4-tetrahydro-isoquinoline-3-carbonyl]-amino}-4-methyl-pentanoic acid] yielded an IC50 of 101 to 1000 nM.
With `O=C(CCCCCCC(=O)Nc1ccc(CN[C@H](C(=O)O)C2CCCCC2)cc1)NO` [Compound 87, (S)-Cyclohexyl-[4-(7-hydroxycarbamoyl-heptanoylamino)-benzylamino]-acetic acid] the IC50 was < 100 nM.
In the case of `O=C(CCCCCCNC(=O)c1cc2cc(CCC(=O)N[C@@H](Cc3ccccc3)C(=O)O)ccc2[nH]1)NO` [Compound 101, (S)-2-{3-[2-(6-Hydroxycarbamoyl-hexylcarbamoyl)-1H-indol-5-yl]-propionylamino}-3-phenyl-propionic acid], the IC50 is reported as < 100 nM.
With `O=C(CCCCCCC(=O)Nc1cccc(CCN[C@H](C(=O)O)c2ccccc2)c1)NO` [Compound 72, (S)-{2-[3-(7-Hydroxycarbamoyl-heptanoylamino)-phenyl]-ethylamino}-phenyl-acetic acid] the IC50 was < 100 nM.
In the case of `O=C(CCCCCCC(=O)Nc1cccc(OCCCC(=O)N[C@H](C(=O)O)c2ccccc2)c1)NO` [Compound 93, (S)-{4-[3-(7-Hydroxycarbamoyl-heptanoylamino)-phenoxy]-butyrylamino}-phenyl-acetic acid], the IC50 is reported as < 100 nM.
For `CC(C)C[C@H](NCC1CCC(CNCc2ccc3cc(C(=O)NO)sc3c2)CC1)C(=O)O` (stereo partly drawn) [Compound 129, (S)-2-[(4-{[(2-Hydroxycarbamoyl-benzo[b]thiophen-6-ylmethyl)-amino]-methyl}-cyclohexylmethyl)-amino]-4-methyl-pentanoic acid], the IC50 was 101 to 1000 nM.
For `O=C(NO)c1cc2ccc(CNCc3ccc(CN[C@@H](Cc4ccccc4)C(=O)O)cc3)cc2s1` [Compound 105, (S)-2-(4-{[(2-Hydroxycarbamoyl-benzo[b]thiophen-6-ylmethyl)-amino]-methyl}-benzylamino)-3-phenyl-propionic], the IC50 was < 100 nM.
Compound `CC(C)C[C@H](NC(=O)c1cccc(NC(=O)CCCCCCC(=O)NO)c1)C(=O)O` [Compound 63, (S)-2-[3-(7-Hydroxycarbamoyl-heptanoylamino)-benzoylamino]-4-methyl-pentanoic acid] has an IC50 of 101 to 1000 nM.
In the case of `O=C(NO)c1cc2ccc(CNCc3ccc(CN[C@H](C(=O)O)C4CCCCC4)cc3)cc2s1` [Compound 117, (S)-Cyclohexyl-(4-{[(2-hydroxycarbamoyl-benzo[b]thiophen-6-ylmethyl)-amino]-methyl}-benzylamino)-acetic acid], the IC50 is reported as < 100 nM.
Work on `O=C(CCCCCCC(=O)Nc1cccc(CNC(=O)N[C@@H](Cc2ccccc2)C(=O)O)c1)NO` [Compound 82, (S)-2-{3-[3-(7-Hydroxycarbamoyl-heptanoylamino)-benzyl]-ureido}-3-phenyl-propionic acid] yielded an IC50 of 101 to 1000 nM.
With `C[C@H](NCc1ccc(CNCc2ccc3cc(C(=O)NO)sc3c2)cc1)C(=O)O` [Compound 119, (S)-2-(4-{[(2-Hydroxycarbamoyl-benzo[b]thiophen-6-ylmethyl)-amino]-methyl}-benzylamino)-propionic acid] the IC50 was < 100 nM.
In the case of `O=C(NO)c1cc2ccc(CNCc3ccc(CN[C@H](C(=O)O)c4ccccc4)cc3)cc2s1` [Compound 125, (S)-(4-{[(2-Hydroxycarbamoyl-benzo[b]thiophen-6-ylmethyl)-amino]-methyl}-benzylamino)-phenyl-acetic acid], the IC50 is reported as < 100 nM.
`CC(C)(C)OC[C@H](NCc1ccc(NC(=O)CCCCCCC(=O)NO)cc1)C(=O)O` [Compound 90, (S)-3-tert-Butoxy-2-[4-(7-hydroxycarbamoyl-heptanoylamino)-benzylamino]-propionic acid] was tested, and the IC50 was 101 to 1000 nM.
Work on `O=C(NO)c1cc2ccc(CNCC3CCC(CN[C@H](C(=O)O)c4ccccc4)CC3)cc2s1` (stereo partly drawn) [Compound 127, (S)-[(4-{[(2-Hydroxycarbamoyl-benzo[b]thiophen-6-ylmethyl)-amino]-methyl}-cyclohexylmethyl)-amino]-phenyl-acetic acid] yielded an IC50 of 101 to 1000 nM.
`CC(C)(C)SC[C@H](NCc1ccc(CNCc2ccc3cc(C(=O)NO)sc3c2)cc1)C(=O)O` [Compound 114, (R)-3-tert-Butylsulfanyl-2-(4-{[(2-hydroxycarbamoyl-benzo[b]thiophen-6-ylmethyl)-amino]-methyl}-benzylamino)-propionic acid] showed an IC50 of 101 to 1000 nM.
With `O=C(O)CNCc1ccc(CNCc2ccc3cc(C(=O)NO)sc3c2)cc1` [Compound 121, (4-{[(2-Hydroxycarbamoyl-benzo[b]thiophen-6-ylmethyl)-amino]-methyl}-benzylamino)-acetic acid] the IC50 was < 100 nM.
For `O=C(CCCCCCC(=O)Nc1cccc(OCCCN[C@@H](Cc2ccccc2)C(=O)O)c1)NO` [Compound 76, (S)-2-{3-[3-(7-Hydroxycarbamoyl-heptanoylamino)-phenoxy]-propylamino}-3-phenyl-propionic acid], the IC50 was < 100 nM.
Compound `O=C(CCCCCCC(=O)Nc1cccc(CNC(=O)N[C@H](C(=O)O)c2ccccc2)c1)NO` [Compound 80, (S)-{3-[3-(7-Hydroxycarbamoyl-heptanoylamino)-benzyl]-ureido}-phenyl-acetic acid] has an IC50 of 101 to 1000 nM.
